ChEMBL document CHEMBL1201862, “PubChem BioAssay data set” (2004)
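Results reflect a 48-hour exposure of cells in 96-well plates to compound at five concentrations. GI50 marks 50% less growth.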 The source made the active and inactive calls. Rule as the data show it: active = GI50 up to about 1.1 µM and inactive = higher.

Key:
Experiment in all cases: NCI anticancer screen, dose series, 48 h
EKVX = system: EKVX
LOX IMVI = system: LOX IMVI
NCI-H226 = system: NCI-H226
RPMI-8226 = system: RPMI-8226
SK-MEL-2 = system: SK-MEL-2
SNB-75 = system: SNB-75
A498 = system: A498
SK-MEL-5 = system: SK-MEL-5
CAKI-1 = system: CAKI-1
MDA-MB-231 = system: MDA-MB-231
M14 = system: M14
COLO 205 = system: COLO 205
MDA-MB-435 = system: MDA-MB-435
DU-145 = system: DU-145
NCI-H23 = system: NCI-H23
SNB-19 = system: SNB-19
786-0 = system: 786-0
SR = system: SR
NCI/ADR-RES = system: NCI/ADR-RES
MOLT-4 = system: MOLT-4

SMILES	GI50 (EKVX)	GI50 (LOX IMVI)	GI50 (NCI-H226)	GI50 (RPMI-8226)	GI50 (SK-MEL-2)	GI50 (SNB-75)	GI50 (A498)	GI50 (SK-MEL-5)	GI50 (CAKI-1)	GI50 (MDA-MB-231)	GI50 (M14)	GI50 (COLO 205)	GI50 (MDA-MB-435)	GI50 (DU-145)	GI50 (NCI-H23)	GI50 (SNB-19)	GI50 (786-0)	GI50 (SR)	GI50 (NCI/ADR-RES)	GI50 (MOLT-4)
CCCCCCCCCCCCCCCCCCOP(=O)([O-])OC1CC[N+](C)(C)CC1 [PERIFOSINE]	11.3 µM (inactive)	7.43 µM (inactive)	11.2 µM (inactive)	3.83 µM (inactive)	13.8 µM (inactive)	5.14 µM (inactive)	3.22 µM (inactive)	15.8 µM (inactive)	3.6 µM (inactive)	6.89 µM (inactive)	2.97 µM (inactive)	3.24 µM (inactive)	14.7 µM (inactive)	16.9 µM (inactive)	16.1 µM (inactive)	9.25 µM (inactive)	2.73 µM (inactive)	1.11 µM (active)	14 µM (inactive)	3.4 µM (inactive)
O=[N+]([O-])C(/C=C(\Cl)[N+](=O)[O-])=C(N1CCOCC1)N1CCOCC1	> 100 µM (inactive)	85.9 µM (inactive)	> 100 µM (inactive)	26.5 µM (inactive)	> 100 µM (inactive)	50.5 µM (inactive)	27 µM (inactive)	> 100 µM (inactive)	27.4 µM (inactive)	23.3 µM (inactive)	> 100 µM (inactive)	19.8 µM (inactive)	> 100 µM (inactive)	> 100 µM (inactive)	> 100 µM (inactive)	> 100 µM (inactive)	16.7 µM (inactive)	39.6 µM (inactive)	> 100 µM (inactive)	50.2 µM (inactive)
C=C(C)C(=O)OC1C(C(C)CCCO)=C(CO)CC2OC(=O)C(=C)C21 (stereo not given)	24.6 µM (inactive)	10.1 µM (inactive)	37.9 µM (inactive)	17.1 µM (inactive)	20.5 µM (inactive)	10.4 µM (inactive)	17.1 µM (inactive)	14 µM (inactive)	17.1 µM (inactive)	17.5 µM (inactive)	16.3 µM (inactive)	15.1 µM (inactive)	19.9 µM (inactive)	14.6 µM (inactive)	19.3 µM (inactive)	37.9 µM (inactive)	4.13 µM (inactive)	14.5 µM (inactive)	33.5 µM (inactive)	18.4 µM (inactive)
O=C(Nc1ccc2c(c1)oc(=O)c1ccccc12)C(Cl)Cl	85.5 µM (inactive)	> 100 µM (inactive)	> 100 µM (inactive)	14.3 µM (inactive)	> 100 µM (inactive)	> 100 µM (inactive)	> 100 µM (inactive)	> 100 µM (inactive)	> 100 µM (inactive)	> 100 µM (inactive)	> 100 µM (inactive)	66.2 µM (inactive)	> 100 µM (inactive)	> 100 µM (inactive)	> 100 µM (inactive)	27.3 µM (inactive)	> 100 µM (inactive)	45 µM (inactive)	> 100 µM (inactive)	54.7 µM (inactive)
CN(CCCNC(=O)c1nn(-c2ccccc2)c2c1ccc1ccccc12)CCCNC(=O)c1nn(-c2ccccc2)c2c1ccc1ccccc12	1.81 µM (inactive)	1.73 µM (inactive)	2.08 µM (inactive)	1.47 µM (inactive)	1.69 µM (inactive)	1.64 µM (inactive)	1.65 µM (inactive)	1.77 µM (inactive)	1.61 µM (inactive)	2.12 µM (inactive)	1.85 µM (inactive)	1.65 µM (inactive)	1.75 µM (inactive)	1.91 µM (inactive)	1.82 µM (inactive)	1.79 µM (inactive)	2.01 µM (inactive)	1.24 µM (inactive)	1.8 µM (inactive)	1.98 µM (inactive)
C[N+](C)(C)CC1CCc2ccccc2C1=O (stereo not given)	7.76 µM (inactive)	18.7 µM (inactive)	24.2 µM (inactive)	1.43 µM (inactive)	16.7 µM (inactive)	16.7 µM (inactive)	26.2 µM (inactive)	16.2 µM (inactive)	4.97 µM (inactive)	7.13 µM (inactive)	5.87 µM (inactive)	7.55 µM (inactive)	5.62 µM (inactive)	18.6 µM (inactive)	13.3 µM (inactive)	15.1 µM (inactive)	6.46 µM (inactive)	1.79 µM (inactive)	10.6 µM (inactive)	2.32 µM (inactive)
